Measured values reported in patent publication US20190015400A1, “Antifungal Compositions” (priority 2017, published 2019).

Legend:
[1] = system: 13 Candida spp. strains (strains A-M); assay: MIC and checkerboard assay, azoles + antihistamines, panel; format: cell-based
Protocol: Determination of minimum inhibitory concentration (MIC) values. MIC values were recorded for all antifungals and antihistamines in order to determine the concentration range of compounds to be used in the checkerboard assays.
The MIC assays were done using the broth microdilution method as described in CLSI document M27-A3 with minor modifications. Yeast cultures were started by picking a colony from a PDA plate stored at 4° C. The colonies were grown in YEPD medium overnight at 35° C. with shaking at 200 rpm. In a 96-well plate compounds were diluted lengthwise along the plate in serial 2-fold dilutions in the RPMI 1640 medium. The yeast cultures were diluted in RPMI 1640 medium to an OD600 within the range of 0.12 and 0.15 (˜1×10^6 cells/mL). The fungal cells were further diluted by taking 25 μL of fungal cells and adding them to 10 mL of RPMI 1640 medium before adding 100 μL to plate (200 μL total volume). The plates were incubated at 35° C. for 48 h. Visual inspection of the wells for no growth was used to determine the MIC. All compounds were tested in duplicate (TABLES 6 and 7).
Checkerboard assays were done as previously described to determine the fractional inhibitory concentration index (FICI). 2-fold dilutions of the azole drug were made in RPMI 1640 medium lengthwise along the plate. […] The FICI was calculated based on the formula below. […]

J774A.1 cells = assay: Mammalian cytotoxicity assay, azoles and compound 2
From the text: David K. Orren (University of Kentucky, Lexington, Ky.) and Prof. David J. Feola (University of Kentucky, Lexington, Ky.), respectively.

## CC[C@@H]([C@H](C)O)n1ncn(-c2ccc(N3CCN(c4ccc(OC[C@@H]5CO[C@@](Cn6cncn6)(c6ccc(F)cc6F)C5)cc4)CC3)cc2)c1=O [POS, posaconazole]
[1]; Candida, drug alone against sensitive fungal strains
  MIC: 0.25 to 1 µg/mL
[1]; synergistic POS + EBA combinations, MIC of the labelled drug
  MIC in synergistic combinations: 0.008 to 0.5 µg/mL
J774A.1 cells; drug alone at 8 μg/mL
  cell survival: 80±9%
J774A.1 cells; drug alone at 16 μg/mL
  cell survival: ~46±3%
